Results as given in US10442763B2, “EBNA1 inhibitors and methods using same” (priority 2015, dated 2019).
pIC50: −log10 of the molar value.

Biological target: T1, His-EBNA1 (DNA binding domain of EBNA1, amino acids 459-607) (Epstein-Barr virus, UniProt P03211)
T1 construct: made in house; host or cells: E. coli
Experiment: Inhibition of 5'-biotin-oPL4624 binding to His-EBNA1 using Alpha Screen technology
Protocol: Inhibition of 5′-Biotin-oPL4624 Binding to his-EBNA1 Using Alpha Screen Technology
Assays were performed using the DNA binding domain of EBNA1 (amino acids 459-607), which was His-tagged (His-EBNA1) and the self-complementary biotinylated (bt) oligonucleotide with the sequence 5′-bt-[…]-ATGCTACCC-3′ (bt-oPL4624; or 5′-bt-SEQ ID NO: 1). The protein was expressed in E. coli and purified according to Barwell, et al., 1995, J Biol Chem. 270:20556-9.). The bt-oPL4624 oligonucleotide was purchased from Integrated DNA Technologies, Inc (IDT). AlphaScreen donor, acceptor beads and white, opaque 384-well assay plates were purchased from PerkinElmer, Inc.
Assays contained 15 nM His-EBNA1, 0.2 nM bt-oPL4624, 5 μg/mL AlphaScreen streptavidin donor beads and nickel chelate acceptor beads, and a series of concentrations of test compound ranging from 3.2 nM to 100 μM in a total volume of 40 μL assay buffer (25 mM Tris, pH 7.2, 160 mM NaCl, 1 mM MgCl2). His-EBNA1 (30 nM) and bt-oPL4624 (0.4 nM) were preincubated with 10 μg/mL nickel chelate AlphaScreen acceptor bead, or 10 μg/mL streptavidin AlphaScreen donor bead, respectively, for 30 minutes at room temperature in assay buffer. Twenty microliters of His-EBNA1/acceptor bead mix and bt-oPL4624/donor bead mix were transferred to assay plates containing 0.4 μL of 1:3 serial dilutions of test compounds previously prepared in DMSO at concentrations ranging from 0.32 μM to 10 mM. Non-specific binding was determined with 5 μg/mL AlphaScreen acceptor bead in the absence of His-EBNA1. After 2 hr incubation at room temperature, the AlphaScreen signal was measured on the Envision plate reader (PerkinElmer, Inc.) at 680 nm excitation and 570 nm emission. Inhibition values at each concentration of test compound were determined by setting 100% equal to raw data values in the absence of EBNA1 and 0% equal to the raw data values in the presence of EBNA1. Nonlinear regression fits of the inhibition values to a one-site dose-response equation were performed using GraphPad Prism.

T1 sequence (P03211 459-607): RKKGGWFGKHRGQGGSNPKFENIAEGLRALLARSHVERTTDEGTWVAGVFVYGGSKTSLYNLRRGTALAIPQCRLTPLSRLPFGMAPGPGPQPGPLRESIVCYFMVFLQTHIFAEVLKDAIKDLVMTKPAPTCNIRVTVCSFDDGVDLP

Structure (SMILES) | pIC50
O=C(O)c1cccc(C#Cc2ccc(CNC3CCS(=O)(=O)CC3)cc2)c1-c1ccc2cc[nH]c2c1 [Entry 169] | 4.00 to 5.00
O=C(O)c1cccc(C#Cc2ccc(OC3CCS(=O)(=O)CC3)cc2)c1-c1ccc2cn[nH]c2c1 [Entry 185] | 4.00 to 5.00
O=C(O)c1cccc(C#Cc2ccc(CN3CCN(c4nccs4)CC3)cc2)c1-c1ccc2cc[nH]c2c1 [Entry 173] | 5.00 to 6.00
O=C(O)c1cccc(C#Cc2ccc(C3(CO)COC3)cc2)c1-c1ccc2cc[nH]c2c1 [Entry 105] | 5.00 to 6.00
O=C(O)c1cccc(C#Cc2ccc(CN3CCN(S(=O)(=O)C4CC4)CC3)cc2)c1-c1ccc2cc[nH]c2c1 [Entry 190] | 4.00 to 5.00
O=C(O)c1cccc(C#Cc2cc3c(CN4CCOCC4)c[nH]c3cc2F)c1-c1ccc2cc[nH]c2c1 [Entry 40] | 4.00 to 5.00
CN(C)C(=O)N1CCN(Cc2ccc(C#Cc3cccc(C(=O)O)c3-c3ccc4cc[nH]c4c3)cc2)CC1 [Entry 171] | 4.00 to 5.00
COC1CCN(Cc2ccc(C#Cc3cccc(C(=O)O)c3-c3ccc4cc[nH]c4c3)cc2)C1 (stereo not drawn) [Entry 163] | 4.00 to 5.00
O=C(O)c1cccc(C#Cc2ccccc2)c1-c1cc2[nH]ccc2cc1F [Entry 113] | 5.00 to 6.00
CS(=O)(=O)N1CCC(CN2CCc3cc(C#Cc4cccc(C(=O)O)c4-c4ccc5cc[nH]c5c4)ccc3C2)C1 (stereo not drawn) [Entry 61] | 4.00 to 5.00
CN1CCN(Cc2ccc(C#Cc3cccc(C(=O)O)c3-c3cnc4[nH]ccc4c3)cc2)CC1 [Entry 176] | 4.00 to 5.00
O=C(O)c1cccc(C#Cc2ccc(OC3CCOCC3)nc2)c1-c1ccc2cc[nH]c2c1 [Entry 100] | 5.00 to 6.00
Nc1nc2c(s1)C[C@H](NC(=O)c1ccc(C#Cc3cccc(C(=O)O)c3-c3ccc4cc[nH]c4c3)cc1)CC2 [Entry 201] | 5.00 to 6.00
CCC(=O)N1CCc2ccc(C#Cc3cccc(C(=O)O)c3-c3ccc4cc[nH]c4c3)cc2C1 [Entry 75] | 4.00 to 5.00
O=C(O)c1cccc(C#Cc2ccc3c(ccn3CCN3CCS(=O)(=O)CC3)c2)c1-c1ccc2cc[nH]c2c1 [Entry 22] | 5.00 to 6.00
CS(=O)(=O)N1CCC(CN2CCc3ccc(C#Cc4cccc(C(=O)O)c4-c4ccc5cc[nH]c5c4)cc3C2)C1 (stereo not drawn) [Entry 62] | 4.00 to 5.00
CS(=O)(=O)N1CCc2ccc(C#Cc3cccc(C(=O)O)c3-c3ccc4cc[nH]c4c3)cc2C1 [Entry 73] | 5.00 to 6.00
O=C(O)c1cccc(C#Cc2ccc3c(CN4CCOCC4)c[nH]c3c2F)c1-c1ccc2cc[nH]c2c1 [Entry 39] | 5.00 to 6.00
CS(=O)(=O)Nc1cccc(-c2cccc(C#Cc3cccc(C(=O)O)c3-c3ccc4cc[nH]c4c3)c2)c1 [Entry 99] | 5.00 to 6.00
Nc1nc(-c2ccc(C#Cc3cccc(C(=O)O)c3-c3ccc4cc[nH]c4c3)cc2)c(C(=O)O)s1 [Entry 129] | > 6.00
CS(=O)(=O)Nc1nc(-c2ccc(C#Cc3cccc(C(=O)O)c3-c3ccc4cc[nH]c4c3)cc2)cs1 [Entry 131] | > 6.00
COC1CCN(Cc2ccc(C#Cc3cccc(C(=O)O)c3-c3ccc4cc[nH]c4c3)cc2)CC1 [Entry 155] | 4.00 to 5.00
COC1CCN(Cc2ccc(C#Cc3cccc(C(=O)O)c3-c3ccc4[nH]ccc4c3)cc2)CC1 [Entry 178] | 4.00 to 5.00
CN(C)CCN(C)Cc1ccc(C#Cc2cccc(C(=O)O)c2-c2ccc3cc[nH]c3c2)cc1 [Entry 149] | 4.00 to 5.00
Cn1ccc2ccc(-c3c(C#Cc4ccccc4)cccc3C(=O)O)nc21 [Entry 116] | 4.00 to 5.00
CC(C)S(=O)(=O)N1CCc2cc(C#Cc3cccc(C(=O)O)c3-c3ccc4cc[nH]c4c3)ccc2C1 [Entry 77] | 5.00 to 6.00
CS(=O)(=O)N1CCC(Cn2ccc3cc(C#Cc4cccc(C(=O)O)c4-c4ccc5cc[nH]c5c4)ccc32)CC1 [Entry 19] | 5.00 to 6.00
Nc1cc(-c2ccc(C#Cc3cccc(C(=O)O)c3-c3ccc4cc[nH]c4c3)cc2)[nH]n1 [Entry 128] | 5.00 to 6.00
O=C(O)c1cccc(C#Cc2ccc(COc3ccc(Cl)c(Cl)c3)cc2)c1-c1ccc2cc[nH]c2c1 [Entry 92] | 5.00 to 6.00
O=C(O)c1cccc(C#Cc2ccc(CC3CCN(S(=O)(=O)C(F)(F)F)CC3)cc2)c1-c1ccc2cc[nH]c2c1 [Entry 53] | 5.00 to 6.00
